pKd: −log10 of the molar value.
Legend:
[1] = molecular target: T1, L. longbeachae LUSH SH2 domain (Legionella longbeachae, UniProt D3HPG5); assay type: binding
T1 construct: gene LLO_0448

L. longbeachae LeSH = molecular target: T2, L. longbeachae LeSH (Legionella longbeachae, UniProt D3HJY4)
T2 construct: gene LLO_2327
T2 sequence (D3HJY4 1-167 limits assumed): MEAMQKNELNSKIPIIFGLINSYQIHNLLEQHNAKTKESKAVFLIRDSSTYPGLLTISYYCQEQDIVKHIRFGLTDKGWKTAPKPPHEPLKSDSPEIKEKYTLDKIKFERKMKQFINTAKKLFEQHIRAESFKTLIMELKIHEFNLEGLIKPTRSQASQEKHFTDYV

T1 sequence (D3HPG5 3-171 limits assumed): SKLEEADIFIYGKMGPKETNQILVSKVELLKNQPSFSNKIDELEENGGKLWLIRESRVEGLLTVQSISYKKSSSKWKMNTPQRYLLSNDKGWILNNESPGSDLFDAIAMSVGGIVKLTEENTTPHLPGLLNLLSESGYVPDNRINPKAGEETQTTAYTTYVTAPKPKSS

SMILES	pKd [1]	X-ray crystal structure of complex (L. longbeachae LeSH)
N[C@@H](Cc1ccc(OP(=O)(O)O)cc1)C(=O)NCC(=O)O [pY-G dipeptide]	6.09	
N[C@@H](Cc1ccc(OP(=O)(O)O)cc1)C(=O)O [phosphotyrosine]		crystal structures of LeSH in complex with three different pTyr ligands, including the phosphotyrosine itself
